Test results: patent US20230085307A1, “PYRIDAZINONE COMPOUND AND HERBICIDE” (NISSAN CHEMICAL CORPORATION, priority 2019, published 2023)

Tests used:
barnyard grass [1] = experiment: Test Example 3: herbicidal effect by foliage application, Wagner pot (Table 18, symbol H); format: in vivo, barnyard grass (Echinochloa crus-galli); conditions: 320 g/ha
Procedure, shortened: (§1)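 Plants were sown in alluvial soil held under 0.1–0.5 cm standing water and grown 14 days in a greenhouse at 25–30 °C. An emulsifiable formulation, water-diluted to the set dose, was then sprayed onto the foliage, and effects were scored three weeks later using previously defined criteria.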

Chinese sprangletop = experiment: Test Example 3: herbicidal effect by foliage application, Wagner pot (Table 18, symbol D); format: in vivo, chinese sprangletop (Leptochloa chinensis); conditions: 320 g/ha
Procedure, shortened: as §1

rice flat sedge = experiment: Test Example 3: herbicidal effect by foliage application, Wagner pot (Table 18, symbol E); format: in vivo, rice flat sedge (Cyperus iria); conditions: 320 g/ha
Procedure, shortened: as §1

southern crabgrass [2] = experiment: Test Example 4: herbicidal effect by soil treatment (Table 19, symbol F); format: in vivo, southern crabgrass (Digitaria ciliaris); conditions: amount of applied herbicide 320 g/ha
Procedure, shortened: (§2)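 Emulsion of test compound, water-diluted to predetermined amount, sprayed on soil after sowing (seed depth ~1.5 cm, sterilized diluvial soil). Greenhouse, 25–30° C. Effect graded at three weeks post-spray.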

green foxtail [3] = experiment: Test Example 4: herbicidal effect by soil treatment (Table 19, symbol G); format: in vivo, green foxtail (Setaria viridis); conditions: amount of applied herbicide 320 g/ha
Procedure, shortened: as §2

barnyard grass [4] = experiment: Test Example 4: herbicidal effect by soil treatment (Table 19, symbol H); format: in vivo, barnyard grass (Echinochloa crus-galli); conditions: amount of applied herbicide 320 g/ha
Procedure, shortened: as §2

wild oat [5] = experiment: Test Example 4: herbicidal effect by soil treatment (Table 19, symbol I); format: in vivo, wild oat (Avena fatua); conditions: amount of applied herbicide 320 g/ha
Procedure, shortened: as §2

blackgrass [6] = experiment: Test Example 4: herbicidal effect by soil treatment (Table 19, symbol J); format: in vivo, blackgrass (Alopecurus myosuroides); conditions: amount of applied herbicide 320 g/ha
Procedure, shortened: as §2

Italian ryegrass [7] = experiment: Test Example 4: herbicidal effect by soil treatment (Table 19, symbol K); format: in vivo, Italian ryegrass (Lolium multiflorum); conditions: amount of applied herbicide 320 g/ha
Procedure, shortened: as §2

windgrass [8] = experiment: Test Example 4: herbicidal effect by soil treatment (Table 19, symbol L); format: in vivo, windgrass (Apera spica-venti); conditions: amount of applied herbicide 320 g/ha
Procedure, shortened: as §2

velvetleaf [9] = experiment: Test Example 4: herbicidal effect by soil treatment (Table 19, symbol M); format: in vivo, velvetleaf (Abutilon theophrasti); conditions: amount of applied herbicide 320 g/ha
Procedure, shortened: as §2

redroot pigweed [10] = experiment: Test Example 4: herbicidal effect by soil treatment (Table 19, symbol N); format: in vivo, redroot pigweed (Amaranthus retroflexus); conditions: amount of applied herbicide 320 g/ha
Procedure, shortened: as §2

lambsquarters [11] = experiment: Test Example 4: herbicidal effect by soil treatment (Table 19, symbol O); format: in vivo, lambsquarters (Chenopodium album); conditions: amount of applied herbicide 320 g/ha
Procedure, shortened: as §2

chickweed [12] = experiment: Test Example 4: herbicidal effect by soil treatment (Table 19, symbol P); format: in vivo, common chickweed (Stellaria media); conditions: amount of applied herbicide 320 g/ha
Procedure, shortened: as §2

persian speedwell [13] = experiment: Test Example 4: herbicidal effect by soil treatment (Table 19, symbol R); format: in vivo, Persian speedwell (Veronica persica); conditions: amount of applied herbicide 320 g/ha
Procedure, shortened: as §2

southern crabgrass [14] = experiment: Test Example 5: herbicidal effect by foliage application, plastic box (Table 20, symbol F); format: in vivo, southern crabgrass (Digitaria ciliaris); conditions: 320 g/ha, foliage application after 14-day growth, evaluated three weeks after application
Procedure, shortened: (§3)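 Post-emergence foliar test in sterilized diluvial soil. Compound applied as water-diluted emulsion at a predetermined rate to 14-day-old plants; evaluation at three weeks.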

green foxtail [15] = experiment: Test Example 5: herbicidal effect by foliage application, plastic box (Table 20, symbol G); format: in vivo, green foxtail (Setaria viridis); conditions: 320 g/ha, foliage application after 14-day growth, evaluated three weeks after application
Procedure, shortened: as §3

barnyard grass [16] = experiment: Test Example 5: herbicidal effect by foliage application, plastic box (Table 20, symbol H); format: in vivo, barnyard grass (Echinochloa crus-galli); conditions: 320 g/ha, foliage application after 14-day growth, evaluated three weeks after application
Procedure, shortened: as §3

wild oat [17] = experiment: Test Example 5: herbicidal effect by foliage application, plastic box (Table 20, symbol I); format: in vivo, wild oat (Avena fatua); conditions: 320 g/ha, foliage application after 14-day growth, evaluated three weeks after application
Procedure, shortened: as §3

blackgrass [18] = experiment: Test Example 5: herbicidal effect by foliage application, plastic box (Table 20, symbol J); format: in vivo, blackgrass (Alopecurus myosuroides); conditions: 320 g/ha, foliage application after 14-day growth, evaluated three weeks after application
Procedure, shortened: as §3

Italian ryegrass [19] = experiment: Test Example 5: herbicidal effect by foliage application, plastic box (Table 20, symbol K); format: in vivo, Italian ryegrass (Lolium multiflorum); conditions: 320 g/ha, foliage application after 14-day growth, evaluated three weeks after application
Procedure, shortened: as §3

windgrass [20] = experiment: Test Example 5: herbicidal effect by foliage application, plastic box (Table 20, symbol L); format: in vivo, windgrass (Apera spica-venti); conditions: 320 g/ha, foliage application after 14-day growth, evaluated three weeks after application
Procedure, shortened: as §3

velvetleaf [21] = experiment: Test Example 5: herbicidal effect by foliage application, plastic box (Table 20, symbol M); format: in vivo, velvetleaf (Abutilon theophrasti); conditions: 320 g/ha, foliage application after 14-day growth, evaluated three weeks after application
Procedure, shortened: as §3

redroot pigweed [22] = experiment: Test Example 5: herbicidal effect by foliage application, plastic box (Table 20, symbol N); format: in vivo, redroot pigweed (Amaranthus retroflexus); conditions: 320 g/ha, foliage application after 14-day growth, evaluated three weeks after application
Procedure, shortened: as §3

lambsquarters [23] = experiment: Test Example 5: herbicidal effect by foliage application, plastic box (Table 20, symbol O); format: in vivo, lambsquarters (Chenopodium album); conditions: 320 g/ha, foliage application after 14-day growth, evaluated three weeks after application
Procedure, shortened: as §3

chickweed [24] = experiment: Test Example 5: herbicidal effect by foliage application, plastic box (Table 20, symbol P); format: in vivo, common chickweed (Stellaria media); conditions: 320 g/ha, foliage application after 14-day growth, evaluated three weeks after application
Procedure, shortened: as §3

persian speedwell [25] = experiment: Test Example 5: herbicidal effect by foliage application, plastic box (Table 20, symbol R); format: in vivo, Persian speedwell (Veronica persica); conditions: 320 g/ha, foliage application after 14-day growth, evaluated three weeks after application
Procedure, shortened: as §3

## Cc1ccc2c(-c3c(O)c(C)nn(C)c3=O)c(-c3ccc(OC(F)F)cc3)sc2c1 [3-151]
Barnyard grass [1]
  herbicidal effect on barnyard grass (H): 3 (Herbicidal rate of 40% or more and less than 70%)
Chinese sprangletop
  herbicidal effect on Chinese sprangletop (D): 0 (Herbicidal rate of 5% or less (almost no effect))
Rice flat sedge
  herbicidal effect on rice flat sedge (E): 3 (Herbicidal rate of 40% or more and less than 70%)
Southern crabgrass [2]
  Herbicidal effect by soil treatment, F: southern crabgrass: 0 (Herbicidal rate of 5% or less (almost no effect))
Green foxtail [3]
  Herbicidal effect by soil treatment, G: green foxtail: 0 (Herbicidal rate of 5% or less (almost no effect))
Barnyard grass [4]
  Herbicidal effect by soil treatment, H: barnyard grass: 0 (Herbicidal rate of 5% or less (almost no effect))
Wild oat [5]
  Herbicidal effect by soil treatment, I: wild oat: 0 (Herbicidal rate of 5% or less (almost no effect))
Blackgrass [6]
  Herbicidal effect by soil treatment, J: blackgrass: 0 (Herbicidal rate of 5% or less (almost no effect))
Italian ryegrass [7]
  Herbicidal effect by soil treatment, K: Italian ryegrass: 0 (Herbicidal rate of 5% or less (almost no effect))
Windgrass [8]
  Herbicidal effect by soil treatment, L: windgrass: 0 (Herbicidal rate of 5% or less (almost no effect))
Velvetleaf [9]
  Herbicidal effect by soil treatment, M: velvetleaf: 0 (Herbicidal rate of 5% or less (almost no effect))
Redroot pigweed [10]
  Herbicidal effect by soil treatment, N: redroot pigweed: 0 (Herbicidal rate of 5% or less (almost no effect))
Lambsquarters [11]
  Herbicidal effect by soil treatment, O: lambsquarters: 0 (Herbicidal rate of 5% or less (almost no effect))
Chickweed [12]
  Herbicidal effect by soil treatment, P: chickweed: 1 (Herbicidal rate of 5% or more and less than 20%)
Persian speedwell [13]
  Herbicidal effect by soil treatment, R: persian speedwell: 5 (Herbicidal rate of 90% or more (almost completely withered))
Southern crabgrass [14]
  herbicidal effect on F: southern crabgrass (evaluation grade 0-5): 0 (Herbicidal rate of 5% or less (almost no effect))
Green foxtail [15]
  herbicidal effect on G: green foxtail (evaluation grade 0-5): 0 (Herbicidal rate of 5% or less (almost no effect))
Barnyard grass [16]
  herbicidal effect on H: barnyard grass (evaluation grade 0-5): 0 (Herbicidal rate of 5% or less (almost no effect))
Wild oat [17]
  herbicidal effect on I: wild oat (evaluation grade 0-5): 0 (Herbicidal rate of 5% or less (almost no effect))
Blackgrass [18]
  herbicidal effect on J: blackgrass (evaluation grade 0-5): 0 (Herbicidal rate of 5% or less (almost no effect))
Italian ryegrass [19]
  herbicidal effect on K: Italian ryegrass (evaluation grade 0-5): 2 (Herbicidal rate of 20% or more and less than 40%)
Windgrass [20]
  herbicidal effect on L: windgrass (evaluation grade 0-5): 0 (Herbicidal rate of 5% or less (almost no effect))
Velvetleaf [21]
  herbicidal effect on M: velvetleaf (evaluation grade 0-5): 3 (Herbicidal rate of 40% or more and less than 70%)
Redroot pigweed [22]
  herbicidal effect on N: redroot pigweed (evaluation grade 0-5): 2 (Herbicidal rate of 20% or more and less than 40%)
Lambsquarters [23]
  herbicidal effect on O: lambsquarters (evaluation grade 0-5): 3 (Herbicidal rate of 40% or more and less than 70%)
Chickweed [24]
  herbicidal effect on P: chickweed (evaluation grade 0-5): 5 (Herbicidal rate of 90% or more (almost completely withered))
Persian speedwell [25]
  herbicidal effect on R: persian speedwell (evaluation grade 0-5): 5 (Herbicidal rate of 90% or more (almost completely withered))

## COc1ccccc1-c1sc2cc(S(C)(=O)=O)ccc2c1-c1c(O)c(C)nn(C)c1=O [3-165]
Barnyard grass [1]
  herbicidal effect on barnyard grass (H): 5 (Herbicidal rate of 90% or more (almost completely withered))
Chinese sprangletop
  herbicidal effect on Chinese sprangletop (D): 4 (Herbicidal rate of 70% or more and less than 90%)
Rice flat sedge
  herbicidal effect on rice flat sedge (E): 3 (Herbicidal rate of 40% or more and less than 70%)
Southern crabgrass [2]
  Herbicidal effect by soil treatment, F: southern crabgrass: 5 (Herbicidal rate of 90% or more (almost completely withered))
Green foxtail [3]
  Herbicidal effect by soil treatment, G: green foxtail: 3 (Herbicidal rate of 40% or more and less than 70%)
Barnyard grass [4]
  Herbicidal effect by soil treatment, H: barnyard grass: 3 (Herbicidal rate of 40% or more and less than 70%)
Wild oat [5]
  Herbicidal effect by soil treatment, I: wild oat: 0 (Herbicidal rate of 5% or less (almost no effect))
Blackgrass [6]
  Herbicidal effect by soil treatment, J: blackgrass: 3 (Herbicidal rate of 40% or more and less than 70%)
Italian ryegrass [7]
  Herbicidal effect by soil treatment, K: Italian ryegrass: 4 (Herbicidal rate of 70% or more and less than 90%)
Windgrass [8]
  Herbicidal effect by soil treatment, L: windgrass: 3 (Herbicidal rate of 40% or more and less than 70%)
Velvetleaf [9]
  Herbicidal effect by soil treatment, M: velvetleaf: 1 (Herbicidal rate of 5% or more and less than 20%)
Redroot pigweed [10]
  Herbicidal effect by soil treatment, N: redroot pigweed: 4 (Herbicidal rate of 70% or more and less than 90%)
Lambsquarters [11]
  Herbicidal effect by soil treatment, O: lambsquarters: 0 (Herbicidal rate of 5% or less (almost no effect))
Chickweed [12]
  Herbicidal effect by soil treatment, P: chickweed: 5 (Herbicidal rate of 90% or more (almost completely withered))
Persian speedwell [13]
  Herbicidal effect by soil treatment, R: persian speedwell: 5 (Herbicidal rate of 90% or more (almost completely withered))
Southern crabgrass [14]
  herbicidal effect on F: southern crabgrass (evaluation grade 0-5): 5 (Herbicidal rate of 90% or more (almost completely withered))
Green foxtail [15]
  herbicidal effect on G: green foxtail (evaluation grade 0-5): 4 (Herbicidal rate of 70% or more and less than 90%)
Barnyard grass [16]
  herbicidal effect on H: barnyard grass (evaluation grade 0-5): 5 (Herbicidal rate of 90% or more (almost completely withered))
Wild oat [17]
  herbicidal effect on I: wild oat (evaluation grade 0-5): 4 (Herbicidal rate of 70% or more and less than 90%)
Blackgrass [18]
  herbicidal effect on J: blackgrass (evaluation grade 0-5): 4 (Herbicidal rate of 70% or more and less than 90%)
Italian ryegrass [19]
  herbicidal effect on K: Italian ryegrass (evaluation grade 0-5): 4 (Herbicidal rate of 70% or more and less than 90%)
Windgrass [20]
  herbicidal effect on L: windgrass (evaluation grade 0-5): 5 (Herbicidal rate of 90% or more (almost completely withered))
Velvetleaf [21]
  herbicidal effect on M: velvetleaf (evaluation grade 0-5): 5 (Herbicidal rate of 90% or more (almost completely withered))
Redroot pigweed [22]
  herbicidal effect on N: redroot pigweed (evaluation grade 0-5): 4 (Herbicidal rate of 70% or more and less than 90%)
Lambsquarters [23]
  herbicidal effect on O: lambsquarters (evaluation grade 0-5): 4 (Herbicidal rate of 70% or more and less than 90%)
Chickweed [24]
  herbicidal effect on P: chickweed (evaluation grade 0-5): 5 (Herbicidal rate of 90% or more (almost completely withered))
Persian speedwell [25]
  herbicidal effect on R: persian speedwell (evaluation grade 0-5): 5 (Herbicidal rate of 90% or more (almost completely withered))
